Assay type in all cases: functional
What all share (parameters): scale not given: the % may be the effect or the level left

Experiment [1] relates to Rattus norvegicus. Kind of experiment: Hypolipidemic activity in high fat diet fed Rattus norvegicus Sprague-Dawley (rat) type-2 diabetes model assessed as reduction in streptozotocin-induced cholesterol level at 20 mg/kg/day, po for 14 days measured after treatment.
In experiment [2] the test system is Rattus norvegicus. Kind of experiment: Hypolipidemic activity in high fat diet fed Rattus norvegicus Sprague-Dawley (rat) type-2 diabetes model assessed as reduction in streptozotocin-induced triglyceride level at 20 mg/kg/day, po for 14 days measured after treatment.
Experiment [3] has as its system Rattus norvegicus. Nature of the experiment: Hypoglycemic activity in high fat diet fed Rattus norvegicus Sprague-Dawley (rat) type-2 diabetes model assessed as reduction in streptozotocin-induced blood glucose level at 20 mg/kg/day, po for 14 days measured after treatment.
In experiment [4] the test system is Rattus norvegicus. Kind of experiment: Hypolipidemic activity in high fat diet fed Rattus norvegicus Sprague-Dawley (rat) type-2 diabetes model assessed as reduction in streptozotocin-induced cholesterol level at 10 mg/kg/day, po for 14 days measured after treatment.
Experiment [5] has as its system Rattus norvegicus. Nature of the experiment: Hypolipidemic activity in high fat diet fed Rattus norvegicus Sprague-Dawley (rat) type-2 diabetes model assessed as reduction in streptozotocin-induced triglyceride level at 10 mg/kg/day, po for 14 days measured after treatment.
For experiment [6], the system named is Rattus norvegicus. Nature of the experiment: Hypoglycemic activity in high fat diet fed Rattus norvegicus Sprague-Dawley (rat) type-2 diabetes model assessed as reduction in streptozotocin-induced blood glucose level at 10 mg/kg/day, po for 14 days measured after treatment.

3 compounds from ChEMBL document CHEMBL3045137, “Synthesis and evaluation of the hypoglycemic and hypolipidemic activity of novel 5-benzylidene-2,4-thiazolidinedione analogs in a type-2 diabetes model” (2011) can be followed below.

Structures are written as SMILES.

Take `O=C(COc1ccc(/C=C2\SC(=O)NC2=O)cc1)Nc1ncc([N+](=O)[O-])s1`: the Activity in the experiment on Rattus norvegicus [1] was found to be 92.46%; in the experiment with Rattus norvegicus [2] it was 78.11%; in the experiment with Rattus norvegicus [3] it was 56.08%.
Taken in the same sequence, the figures for `NC(=O)c1cc(C(=O)COc2ccc(/C=C3\SC(=O)NC3=O)cc2)ccc1O` were 89.7%, 74.18% and 64.43%.
For the compound `CCc1ccc(CCOc2ccc(CC3SC(=O)NC3=O)cc2)nc1.Cl` (centres undefined) [PIOGLITAZONE HYDROCHLORIDE], the results for the Activity with Rattus norvegicus [4], with Rattus norvegicus [5] and in the experiment on Rattus norvegicus [6] were 86.83%, 78.38% and 51.57%, respectively.
